The record followed here is ChEMBL document CHEMBL1141564, “Meriolins (3-(pyrimidin-4-yl)-7-azaindoles): synthesis, kinase inhibitory activity, cellular effects, and structure of a CDK2/cyclin A/meriolin complex” (J Med Chem, 2008).

SMILES strings stand for the structures.

Assay [1] has as its system HCT-116. Briefly: Antiproliferative activity against human HCT116 cells assessed as reduction in diameter of spheroids at 1 uM after 5 days. It is filed as functional.
A short description of assay [2]: Inhibition of pig GSK-3-alpha/GSK-3beta. Details: species or system Sus scrofa.
A short description of assay [3]: Inhibition of pig CK1delta/CK1epsilon. Also noted: species or system Sus scrofa.
In assay [4] the target is Cyclin-dependent kinase 2/cyclin A (Homo sapiens, UniProt P24941). As to the kind of experiment: Inhibition of human recombinant CDK2/cyclin A expressed in insect cells.
The next assay deals with GBM. Briefly: cells. The settings on record: Homo sapiens, 48 h.
The subject of assay [5] is HCT-116. Briefly: Antiproliferative activity against human HCT116 cells after 5 days. Conditions: HCT-116, 120 h. It is filed as functional, cell-based.
For a further assay, the system named is SH-SY5Y. As to the kind of experiment: cells. The settings on record: Homo sapiens, 48 h.
The test system of another assay is KMS-11. As to the kind of experiment: cells. Conditions: Homo sapiens, KMS-11, 48 h.
In the next assay the target is CDK9/cyclin T1 (Homo sapiens, UniProt P50750). As to the kind of experiment: Inhibition of human recombinant CDK9/cyclin T expressed in insect cells.
CDK9/cyclin T1, sequence (O60563 whole entry): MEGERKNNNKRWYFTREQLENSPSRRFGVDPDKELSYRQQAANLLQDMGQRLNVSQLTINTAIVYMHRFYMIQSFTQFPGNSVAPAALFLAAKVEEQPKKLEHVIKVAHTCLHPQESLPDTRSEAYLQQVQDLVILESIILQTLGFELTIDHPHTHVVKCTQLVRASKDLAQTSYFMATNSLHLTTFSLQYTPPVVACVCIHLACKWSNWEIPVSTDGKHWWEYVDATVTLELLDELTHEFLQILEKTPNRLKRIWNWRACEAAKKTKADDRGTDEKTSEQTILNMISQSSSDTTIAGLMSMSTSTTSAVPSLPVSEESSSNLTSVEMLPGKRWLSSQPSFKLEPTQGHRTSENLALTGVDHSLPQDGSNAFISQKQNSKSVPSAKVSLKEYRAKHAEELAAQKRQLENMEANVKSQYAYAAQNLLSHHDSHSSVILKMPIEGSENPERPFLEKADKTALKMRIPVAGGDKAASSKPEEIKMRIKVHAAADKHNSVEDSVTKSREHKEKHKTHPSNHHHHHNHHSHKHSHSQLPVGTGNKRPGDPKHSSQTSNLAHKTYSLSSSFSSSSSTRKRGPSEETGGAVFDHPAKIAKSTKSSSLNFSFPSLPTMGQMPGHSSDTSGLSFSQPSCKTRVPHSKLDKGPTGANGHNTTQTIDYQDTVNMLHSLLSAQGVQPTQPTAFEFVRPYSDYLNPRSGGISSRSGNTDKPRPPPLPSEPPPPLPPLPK
CDK9/cyclin T1, sequence (P50750 whole entry): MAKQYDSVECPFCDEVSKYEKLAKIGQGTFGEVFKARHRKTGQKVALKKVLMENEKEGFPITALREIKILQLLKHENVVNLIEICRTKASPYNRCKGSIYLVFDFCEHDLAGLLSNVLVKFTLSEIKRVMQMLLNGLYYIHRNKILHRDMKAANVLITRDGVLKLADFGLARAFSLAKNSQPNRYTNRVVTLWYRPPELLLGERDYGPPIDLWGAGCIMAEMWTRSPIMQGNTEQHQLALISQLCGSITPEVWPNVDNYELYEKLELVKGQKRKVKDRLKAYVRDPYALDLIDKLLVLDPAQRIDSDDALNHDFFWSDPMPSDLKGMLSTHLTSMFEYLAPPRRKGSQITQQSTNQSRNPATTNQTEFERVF
Another assay deals with LS174T. As to the kind of experiment: cells. Conditions: Homo sapiens, 48 h.
The target of assay [6] is Cyclin-dependent kinase 5/CDK5 activator 1 (Homo sapiens, UniProt Q00535). Briefly: Inhibition of recombinant GST-CDK5/p25 expressed in Escherichia coli.
Cyclin-dependent kinase 5/CDK5 activator 1, sequence (Q00535 whole entry): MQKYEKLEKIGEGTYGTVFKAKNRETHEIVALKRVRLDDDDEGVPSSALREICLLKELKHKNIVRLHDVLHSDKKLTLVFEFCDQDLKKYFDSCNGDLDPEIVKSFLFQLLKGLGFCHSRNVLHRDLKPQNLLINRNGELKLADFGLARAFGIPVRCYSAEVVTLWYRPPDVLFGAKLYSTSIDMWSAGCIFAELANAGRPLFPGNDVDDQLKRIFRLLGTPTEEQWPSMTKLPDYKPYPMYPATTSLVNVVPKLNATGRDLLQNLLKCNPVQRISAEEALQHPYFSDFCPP
Cyclin-dependent kinase 5/CDK5 activator 1, sequence (Q15078 whole entry, further chain): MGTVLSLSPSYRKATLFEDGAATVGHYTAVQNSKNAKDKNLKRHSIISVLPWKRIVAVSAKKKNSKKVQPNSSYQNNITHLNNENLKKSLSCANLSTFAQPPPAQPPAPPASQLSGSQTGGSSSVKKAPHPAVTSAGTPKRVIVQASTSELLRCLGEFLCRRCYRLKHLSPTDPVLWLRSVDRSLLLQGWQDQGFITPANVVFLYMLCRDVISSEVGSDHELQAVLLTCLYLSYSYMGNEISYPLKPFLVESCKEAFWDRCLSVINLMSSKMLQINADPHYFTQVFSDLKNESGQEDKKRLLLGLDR
For another assay, the system named is HEK293. As to the kind of experiment: cells. Conditions: Homo sapiens, HEK293, 48 h.
Assay [7] can be described thus: Inhibition of starfish oocyte CDK1/cyclin B. Details: species or system Marthasterias glacialis.
In assay [8] the target is Dual specificity tyrosine-phosphorylation-regulated kinase 1A (Rattus norvegicus, UniProt Q63470). As to the kind of experiment: Inhibition of rat recombinant GST-DYRK1A expressed in Escherichia coli.

Description for GBM: Survival of human GBM cells after 48 hrs by neutral red reduction assay
Description for HEK293: Survival of human HEK293 cells after 48 hrs by MTS reduction assay
Description for KMS-11: Survival of human KMS11 cells after 48 hrs by neutral red reduction assay
Description for LS174T: Survival of human LS174T cells after 48 hrs by MTS reduction assay
Description for SH-SY5Y: Survival of human SHSY5Y cells after 48 hrs by MTS reduction assay

As to `COc1ccnc2[nH]cc(-c3ccnc(N)n3)c12` [MERIOLIN 3], the Activity with HCT-116 [1] is given as 720 um. Also, the IC50 (commonly the point on the concentration scale where inhibition reaches its midpoint) came to 230 nM in assay [2]; 200 nM in assay [3]; 11 nM in [4]; 140 nM in the assay with GBM; 63 nM with HCT-116 [5]; 73 nM in the assay with SH-SY5Y. Further, the IC50 in the assay with KMS-11 is 120 nM; at CDK9/cyclin T1, 6 nM; in the assay on LS174T, 130 nM; in assay [6], 170 nM; with HEK293 it was 240 nM; in [7], 170 nM.
On to `Nc1nccc(-c2c[nH]c3nc(Br)ccc23)n1`, for which the IC50 is 300 nM in [8]; 30000 nM in [2]; 1300 nM in assay [4]; above 20000 nM in the assay with GBM; 43000 nM with SH-SY5Y; above 15000 nM with KMS-11. The IC50 is 1000 nM on CDK9/cyclin T1; above 30000 nM with LS174T; 680 nM in assay [6]; above 100000 nM in the assay with HEK293; 2200 nM in assay [7].
As to `COc1ccnc2c1c(-c1ccnc(N)n1)cn2C` [MERIOLIN 9], the values for the IC50 in assay [6] and in assay [7] were 73000 nM and 25000 nM, respectively.
Regarding `Nc1nccc(-c2c[nH]c3nccc(O)c23)n1` [MERIOLIN 2], the half-inhibitory concentration (IC50) in [2] worked out at 400 nM; in [4] it was 18 nM; with GBM, 1210 nM; in the assay with SH-SY5Y it was 410 nM; in the assay on KMS-11, 600 nM; at CDK9/cyclin T1, 18 nM. The IC50 amounted to 1060 nM with LS174T, 50 nM in [6], 960 nM in the assay with HEK293 and 57 nM in assay [7].
Regarding `CC(C)Oc1ccnc2[nH]cc(-c3ccnc(N)n3)c12` [MERIOLIN 6], the IC50 in assay [2] was determined as 21 nM; in assay [3], 140 nM; in the assay on GBM it was 80 nM; at CDK9/cyclin T1, 5.6 nM; in the assay with LS174T, 60 nM; in assay [6] it was 3 nM. For the same compound, the IC50 in the assay with HEK293 is 89 nM; in assay [7], 8 nM.
`Oc1ccnc2[nH]cc(-c3ccncn3)c12`: the IC50 is 1800 nM in assay [2]; 700 nM in assay [4]; above 20000 nM in the assay with GBM; 28000 nM in the assay on SH-SY5Y; above 15000 nM in the assay on KMS-11; 250 nM on CDK9/cyclin T1. Moreover, the IC50 in the assay on LS174T turned out to be 23500 nM; in assay [6], 700 nM; with HEK293, 84000 nM.
For the compound `Cn1cc(-c2ccnc(N)n2)c2c(O)ccnc21` [MERIOLIN 8], the IC50 is 4600 nM in assay [2]; 2300 nM in [3]; 1800 nM in assay [4]; above 20000 nM in the assay on GBM; above 30000 nM in the assay on SH-SY5Y; above 20000 nM in the assay on KMS-11. Further, the IC50 at CDK9/cyclin T1 was 1200 nM; in the assay on LS174T, above 30000 nM; in assay [6] it was 5500 nM; in the assay with HEK293 it was above 30000 nM.
Turning to `COc1ccnc2[nH]cc(-c3ccnc(SC)n3)c12`, the IC50 in assay [2] was 7000 nM; in assay [3], 600 nM; in assay [4] it was 2100 nM; in the assay with GBM it was above 20000 nM; with SH-SY5Y, above 100000 nM; in the assay with KMS-11, above 20000 nM. Also, the IC50 is 1100 nM on CDK9/cyclin T1; above 30000 nM in the assay on LS174T; 2300 nM in assay [6]; 66000 nM in the assay on HEK293; 1800 nM in assay [7].
Take `COCCOc1ccnc2[nH]cc(-c3ccnc(N)n3)c12` [MERIOLIN 7]: the IC50 was above 10000 nM in assay [8]; 63000 nM in assay [2]; 100000 nM in assay [3]; above 10000 nM in assay [4]; above 20000 nM in the assay with GBM; above 100000 nM in the assay with SH-SY5Y. In addition, the IC50 is above 20000 nM in the assay with KMS-11; 5300 nM on CDK9/cyclin T1; above 30000 nM in the assay on LS174T; 14000 nM in assay [6]; above 100000 nM with HEK293; 35000 nM in [7].
With `COc1ccnc2[nH]cc(-c3ccncn3)c12`, the concentration for half-maximal inhibition (IC50) is 1100 nM in assay [2]; 600 nM in [3]; 800 nM in assay [4]; 10000 nM in the assay on GBM; 10200 nM in the assay on SH-SY5Y; 10000 nM in the assay on KMS-11. Besides, the IC50 was 220 nM at CDK9/cyclin T1, 10000 nM in the assay on LS174T, 1300 nM in assay [6] and 35500 nM in the assay on HEK293.
Regarding `Nc1nccc(-c2c[nH]c3ncccc23)n1` [MERIOLIN 1], the IC50 with GBM turned out to be 1380 nM; with SH-SY5Y, 670 nM; in the assay with KMS-11, 1270 nM; on CDK9/cyclin T1 it was 26 nM; in the assay on LS174T it was 1500 nM; in assay [6] it was 510 nM. The compound also displayed an IC50 with HEK293 of 2200 nM.
With `CCCOc1ccnc2[nH]cc(-c3ccnc(N)n3)c12` [MERIOLIN 5], the IC50 in assay [2] came out at 25 nM; in assay [3] it was 200 nM; in assay [4] it was 3 nM; in the assay with GBM, 80 nM; with SH-SY5Y, 26 nM; in the assay on KMS-11, 40 nM. The IC50 on CDK9/cyclin T1 is 5.6 nM; in the assay with LS174T, 47 nM; in [6], 3 nM; in the assay on HEK293, 85 nM; in assay [7], 7 nM.
Take `CCOc1ccnc2[nH]cc(-c3ccnc(N)n3)c12` [MERIOLIN 4]: the IC50 in [2] amounted to 30 nM; in assay [3] it was 100 nM; in assay [4] it was 7 nM; in the assay on GBM it was 130 nM; with SH-SY5Y, 81 nM; in the assay with KMS-11, 60 nM. Besides, the IC50 on CDK9/cyclin T1 stood at 7 nM; with LS174T it was 100 nM; in assay [6], 5 nM; in the assay with HEK293, 220 nM; in [7], 10 nM.
Consider `Nc1nccc(-c2c[nH]c3nccc(Cl)c23)n1`, for which the IC50 in [2] came to 2000 nM; in assay [3] it was 3000 nM; in [4] it was 60 nM; in the assay on GBM, 10000 nM; in the assay with SH-SY5Y, 1920 nM; in the assay with KMS-11, 7500 nM. Besides, the IC50 on CDK9/cyclin T1 is 50 nM; in the assay on LS174T it was above 10000 nM; in assay [6], 230 nM; with HEK293 it was 10800 nM; in assay [7], 240 nM.
